Measured values from ChEMBL document CHEMBL1201862, “PubChem BioAssay data set” (2004).
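Briefly, cells in 96-well plates were exposed to five compound concentrations for 48 h, and endpoints were estimated by linear interpolation. GI50 is the concentration that inhibits growth by half.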 Activity calls are given as the source filed them. No stated cut-off is given here; in the data, active = GI50 up to about 1.1 µM and inactive = higher.

Assays:
Assay in all cases: DTP human tumour cell line panel, 48 h
DMS-114 = system: DMS-114
DMS-273 = system: DMS-273
HOP-18 = system: HOP-18
KM-20L2 = system: KM-20L2
LXFL 529 = system: LXFL 529
M19-MEL = system: M19-MEL
RXF 631 = system: RXF 631
SNB-78 = system: SNB-78
XF498 = system: XF498

With `COCN1COCN/C1=N\C#N` the GI50 (DMS-114) was > 100 µM (inactive), the GI50 (DMS-273) was 98.2 µM (inactive) and the GI50 (HOP-18) was > 100 µM (inactive). For the same compound, the GI50 (KM-20L2) was > 100 µM (inactive), the GI50 (LXFL 529) was > 100 µM (inactive) and the GI50 (M19-MEL) was > 100 µM (inactive). For the same compound, the GI50 (RXF 631) was > 100 µM (inactive), the GI50 (SNB-78) was > 100 µM (inactive) and the GI50 (XF498) was > 100 µM (inactive).
For `Cn1c(N)[n+](C(=O)OCc2ccccc2)c(=O)c2c1ncn2C(=O)OCc1ccccc1`, the GI50 (DMS-114) was 99.8 µM (inactive), the GI50 (DMS-273) was > 100 µM (inactive) and the GI50 (HOP-18) was 78.9 µM (inactive). For the same compound, the GI50 (KM-20L2) was > 100 µM (inactive), the GI50 (LXFL 529) was > 100 µM (inactive) and the GI50 (M19-MEL) was > 100 µM (inactive). For the same compound, the GI50 (SNB-78) was 41.5 µM (inactive).
`CCCCCCCCC/C=C/C=C/C(=O)NCC(=O)NC1C(O)C(O)C(Nc2ncnc3[nH]cnc23)OC1C(O)CO` (stereo unspecified) was tested, and the GI50 (DMS-114) was 0.0551 µM (active), the GI50 (DMS-273) was 0.001 µM (active) and the GI50 (KM-20L2) was 0.001 µM (active). For the same compound, the GI50 (LXFL 529) was 0.00838 µM (active) and the GI50 (M19-MEL) was 0.001 µM (active).
In the case of `CCOc1ccccc1NC(=O)CCc1nnc2s/c(=C\CCc3ccccc3)c(=O)n12`, the GI50 (DMS-114) was > 100 µM (inactive), the GI50 (DMS-273) was > 100 µM (inactive) and the GI50 (KM-20L2) was > 100 µM (inactive). For the same compound, the GI50 (LXFL 529) was > 100 µM (inactive), the GI50 (M19-MEL) was > 100 µM (inactive) and the GI50 (SNB-78) was > 100 µM (inactive). For the same compound, the GI50 (XF498) was > 100 µM (inactive).
In the case of `FC(F)(F)C12C34C=CC5(CCC6(C=CC1(CC3)O6)C52C(F)(F)F)O4` (stereo unspecified), the GI50 (DMS-273) was > 100 µM (inactive), the GI50 (HOP-18) was > 100 µM (inactive) and the GI50 (KM-20L2) was > 100 µM (inactive). For the same compound, the GI50 (LXFL 529) was > 100 µM (inactive), the GI50 (M19-MEL) was > 100 µM (inactive) and the GI50 (SNB-78) was > 100 µM (inactive). The GI50 (XF498) was > 100 µM (inactive).
For `Nc1ccc(-c2cc(C(=O)Nc3nccs3)nc(S)n2)cc1`, the GI50 (DMS-114) was > 100 µM (inactive), the GI50 (HOP-18) was 61.1 µM (inactive) and the GI50 (KM-20L2) was > 100 µM (inactive). The GI50 (LXFL 529) was > 100 µM (inactive), the GI50 (M19-MEL) was > 100 µM (inactive) and the GI50 (SNB-78) was > 100 µM (inactive). The GI50 (XF498) was > 100 µM (inactive).
For `CC[C@]1(O)C[C@H]2CN(CCc3c([nH]c4ccccc34)[C@@](C(=O)OC)(c3cc4c(cc3OC)N(C)[C@H]3[C@@](O)(C(=O)OC)[C@H](OC(C)=O)[C@]5(CC)C=CCN6CC[C@]43[C@@H]65)C2)C1`, the GI50 (DMS-273) was 0.000375 µM (active), the GI50 (HOP-18) was 0.573 µM (active) and the GI50 (KM-20L2) was 0.000397 µM (active). For the same compound, the GI50 (LXFL 529) was 0.00045 µM (active), the GI50 (RXF 631) was 0.00262 µM (active) and the GI50 (SNB-78) was 0.00173 µM (active). For the same compound, the GI50 (XF498) was 0.000402 µM (active).
With `N#CC1(C2SCC[S+]2[O-])C2=C(C(=O)c3ccccc3C2=O)N2CCCC21` (stereo unspecified) the GI50 (DMS-114) was 2.14 µM (inactive), the GI50 (DMS-273) was 3.03 µM (inactive) and the GI50 (HOP-18) was 3.25 µM (inactive). The GI50 (KM-20L2) was 4.97 µM (inactive), the GI50 (LXFL 529) was 2.74 µM (inactive) and the GI50 (M19-MEL) was 0.286 µM (active). For the same compound, the GI50 (RXF 631) was 1.46 µM (inactive), the GI50 (SNB-78) was 1.49 µM (inactive) and the GI50 (XF498) was 2.55 µM (inactive).
In the case of `COC(=O)C(=O)C(C(=O)C=C(C)C)C(=O)C(=O)Nc1cccc(C(C)=O)c1` (stereo unspecified), the GI50 (DMS-114) was > 100 µM (inactive), the GI50 (DMS-273) was > 100 µM (inactive) and the GI50 (HOP-18) was > 100 µM (inactive). For the same compound, the GI50 (KM-20L2) was > 100 µM (inactive), the GI50 (LXFL 529) was > 100 µM (inactive) and the GI50 (M19-MEL) was > 100 µM (inactive). The GI50 (RXF 631) was > 100 µM (inactive), the GI50 (SNB-78) was > 100 µM (inactive) and the GI50 (XF498) was > 100 µM (inactive).
`CN1C(=O)N(C)C(N2CCCC2)c2c1nc1ccccn1c2=O` (stereo unspecified) was tested, and the GI50 (DMS-114) was 56.2 µM (inactive), the GI50 (DMS-273) was 43.4 µM (inactive) and the GI50 (HOP-18) was > 100 µM (inactive). The GI50 (KM-20L2) was > 100 µM (inactive), the GI50 (LXFL 529) was 63.5 µM (inactive) and the GI50 (M19-MEL) was 92.5 µM (inactive). For the same compound, the GI50 (SNB-78) was 57.4 µM (inactive) and the GI50 (XF498) was 77.8 µM (inactive).
In the case of `CCNc1nnc(CSc2nc(-c3ccccc3)c(-c3ccccc3)[nH]2)s1`, the GI50 (DMS-114) was 20.7 µM (inactive), the GI50 (DMS-273) was 22.2 µM (inactive) and the GI50 (KM-20L2) was 27.8 µM (inactive). For the same compound, the GI50 (LXFL 529) was 24.7 µM (inactive), the GI50 (M19-MEL) was 16.3 µM (inactive) and the GI50 (SNB-78) was 30.8 µM (inactive).
For `O=C1C=CC(S(=O)(=O)C2=C/C(=C/Nc3ccc(Cl)cc3)C(=O)C=C2)=C/C1=C/Nc1ccc(Cl)cc1`, the GI50 (DMS-114) was > 100 µM (inactive), the GI50 (DMS-273) was > 100 µM (inactive) and the GI50 (HOP-18) was > 100 µM (inactive). The GI50 (KM-20L2) was > 100 µM (inactive), the GI50 (LXFL 529) was > 100 µM (inactive) and the GI50 (M19-MEL) was > 100 µM (inactive). The GI50 (RXF 631) was > 100 µM (inactive).
With `COC(=O)C(=O)Cc1nc2ccccc2s1` the GI50 (DMS-114) was > 100 µM (inactive), the GI50 (DMS-273) was > 100 µM (inactive) and the GI50 (HOP-18) was > 100 µM (inactive). For the same compound, the GI50 (KM-20L2) was > 100 µM (inactive), the GI50 (LXFL 529) was > 100 µM (inactive) and the GI50 (M19-MEL) was > 100 µM (inactive). For the same compound, the GI50 (SNB-78) was > 100 µM (inactive).
For `N#C/N=C(/N)NCc1ccccc1`, the GI50 (DMS-114) was > 100 µM (inactive), the GI50 (DMS-273) was > 100 µM (inactive) and the GI50 (KM-20L2) was > 100 µM (inactive). The GI50 (LXFL 529) was > 100 µM (inactive) and the GI50 (M19-MEL) was > 100 µM (inactive).
For `Nc1nc(-c2ccccc2)c(Cl)c(-c2cc(Cl)ccc2O)n1`, the GI50 (DMS-114) was 26.7 µM (inactive), the GI50 (DMS-273) was 29.7 µM (inactive) and the GI50 (HOP-18) was 42.3 µM (inactive). For the same compound, the GI50 (KM-20L2) was 65.3 µM (inactive), the GI50 (LXFL 529) was 25.9 µM (inactive) and the GI50 (M19-MEL) was > 72.1 µM (inactive). For the same compound, the GI50 (RXF 631) was 97.7 µM (inactive), the GI50 (SNB-78) was 28.1 µM (inactive) and the GI50 (XF498) was 28.8 µM (inactive).
In the case of `Cc1ccc(S(=O)(=O)NC(C)C(=O)O)cc1` (stereo unspecified), the GI50 (DMS-273) was > 100 µM (inactive), the GI50 (HOP-18) was > 100 µM (inactive) and the GI50 (KM-20L2) was > 100 µM (inactive). For the same compound, the GI50 (LXFL 529) was > 100 µM (inactive), the GI50 (M19-MEL) was > 100 µM (inactive) and the GI50 (RXF 631) was > 100 µM (inactive). For the same compound, the GI50 (XF498) was > 100 µM (inactive).
